This is an account of results in patent publication USRE35801E, “Prophylactic and therapeutic composition for circulatory disorders and method of treatment” (priority 1985, dated 1998).

Structures are written as SMILES. Where “and” joins values, the source holds several entries; their conditions need not be identical. Equal entries are not always repeated.

The test system of series [1] is cerebral ischemia recirculation model. In words: Protective action in cerebral ischemia recirculation model. The class given is in vivo, Wistar-strain male rat. The arrangement: key to Presence of electroencephalogram restoration / Judgement of action: The case when restoration of electroencephalogram is judged as +; case when not recognized as -. The method, then: (3) Protective action in cerebral ischemia recirculation model
A Wistar-strain male rat weighing about 400 g was administered intramascularly with 0.6 mg of di-tubocurarine to be immobilized and, after a trachea cannulation, the head portion was fixed under artificial respiration on a stereotaxic device. The head skin was cut open, cranial bone was bored, and then bipolar electrode for lead-out of electroencephalogram were placed on the surface of the subdural left frontal cerebral cortex. After the electrode was fixed with the cranial bone by use of dental cement, the animal was held on its back. Next, a cannula for measurement of systemic pressure was placed within the left femoral artery, and a cannula for additional administration of d-tubocurarine within the left femoral vein, respectively. The heart rate was measured and recorded by driving a heart rate meter with the artery wave.
After blood pressure, heart rate and various parameters of electroencephalogram were stabilized, 10 mg/kg of the active ingredient of the present invention prepared in a suspension so as to give 1 ml/kg in 1% tragacanth gum solution was administered directly into duodenum […]. To the control group, only the 1% tragacanth gum solution of the same volume was administered similarly.
Ten to twenty minutes after administration of the medicine, while monitoring the electroencephalogram, blood pressure and heart rate on a multi-purpose monitoring recording device (RM-85 model, produced by Nippon Koden K.K.), the following operations were performed according to the methods shown below for cerebral ischemia loading.
First, ribs were set free at the left costicartilage end to open the chest. Next, cerebral blood flow was blocked for ten minutes by obstructing the left common carotid artery and the left subclavian artery exposed at the aorta originating portion at the same time, and then the brachiocephalic trunk by use of artery clips 30 minutes after administration of the medicine.
Recirculation of cerebral blood flow was effected by releasing at the same time the two artery clips mounted on the respective sites as mentioned above.
The protective action of the medicine for the disorder after recirculation of cerebral ischemia was examined by the presence of restoration of electroencephalogram, and survival time of animal after the recirculation.
During the experiment, the rectal temperature of the animal was maintained at 37° to 38° C. by use of a warming mat. Also, the rectal temperature was continuously drawn on the recorder together with electroencephalogram, femoral artery pressure and heart rate.

The conditions of series [2]: National Cancer Institute Report, 1978; cited from earlier work.
Series [3] deals with myocardial ischemia (isolated heart, cardiac output). In words: Protective action for myocardial ischemia (isolated perfused working heart). The arrangement: species or system Wistar strain male rats. An excerpt:
Protective action for myocardial ischemia
When coronary blood flow transporting nutritions to cardiac muscles is interrupted (disorder in blood flow) or recirculated (disorder in recirculation) by a certain cause, cardiac muscles will be damaged (disorder of mycardial ischemia). The degree of such disorder in cardiac muscles will be advanced as the period of ischemia state is prolonged to cause various ischemic cardiac disorders such as the so-called myocardial infarction and cardiac insufficiency.
Accordingly, the protective effect of the Compound No. 1, as a typical compound, on cardiac muscles were examined as described below.
In the experiment, Wistar strain male rats weighing 300 to 400 g were used. The heart was extirpated into a Krebs-Henseleit bicarbonate (KH) solution which had been oxygenated with 95% O2 -5% CO2, under anesthesia by intraperitoneal administration of 50 mg/kg of pentobarbital sodium. Immediately after the isolation, a cannula was intubated into the aorta ascendens, and perfusion was started according to the Langendorff method (75 cm H2 O). Subsequently, the cannula was intubated into the left artium. Then, perfusion in accordance with the Langerdorff method was further conducted for 10 minutes, and then the left artium cannula was opened change the mode of perfusion to that of the working heart method (preload 10 cm H2 O, afterload 80 cm H2 O) (American Journal of Physiology, 212, 804, 1967), which was conducted for 15 minutes. Next, in accordance with the method of Ichihara et al (Journal of Cardiovascular Pharmacology, 5, 745, 1983), the afterload on the aorta was released to provide an ischemic state in the cardiac muscles for 20 minutes. Since five minutes before the initiation of the ischemic state, the perfusate was changed to the one containing the test medicine and such perfusate was used also during the period of the ischemic state. Reperfusion was conducted for 30 minutes with a perfusate containing no test medicine with the afterload of 80 cm H2 O. In order to determine the cardiac functions, coronal perfusion flow (CF), cardiac output (CO), heart rate (HR), aorta pressure (AP) and rate pressure product (HR×AP) were measured. The CF was measured by use of a 10 ml measuring cylinder. The CO was measured through a direct blood flow measuring probe (Model FF-030, 30, produced by Nihon Kohden K.K.) disposed immediately in front of the left artium cannula, by use of an electromagnetic blood flow meter (Model MFV-2100, produced by Nihon Kohden K.K.) and an amplifier for bioelectricity (Mode AB-621G, produced by Nihon Kohden K.K,). The AP was measured through a pressure transducer (Model MPU-0.5, produced by Nihon Kohden K.K.) connected to the aortic cannula, by use of an amplifier for distortion pressure (Model AP-601G, produced by Nihon Kohden K.K.). The HR was measured by use of an cardiotacho meter (Model AT-601G, produced by Nihon Kohden K.K.). The rate pressure product (HR×AP) was calculated by multiplying the HR by the aortic pressure.
As the perfusate, a KH solution, which had been oxygenated with 95% O2 -5% CO2 and heated to 37° C. was used. The formulation of the KH solution (unit: mM) is as follows. NaCl 118, KCl 4.7, CaCl2 2.5, MgSO4 1.2, KH2 PO4 1.2, NaHCO3 25 and glucose 11. […]
Changes in the cardiac functions after treatment with the test medicine and recovery thereof at reperfusion are indicated in terms of percentage based on the value measured before the treatment with the test medicine. […]

The subject of series [4] is mouse. The conditions noted are these: mouse intraperitoneal administration; cited from earlier work.

As usually defined, the LD50 is the dose expected to kill half of the subjects tested. For `CC1=NN(c2ccccc2)C(=O)C1` [Compound 1, 3-methyl-1-phenyl-2-pyrazolin-5-one], the “Presence of electroencephalogram restoration” value in series [1] (10 mg/kg into duodenum, 10 min cerebral ischemia (Table 3)) is “+”. Moreover, in series [1] (10 mg/kg, average), the “Survival time after recirculation, average” value is 117 min. Moreover, in series [1] (10 mg/kg, individual animal), the Judgement of action result is “+”; the “Presence of electroencephalogram restoration” value is “+”; the “Survival time after recirculation” value was 46 min and 140 min and 164 min. Moreover, in series [1] (active ingredient group), the “electroencephalogram restoration during recirculation period (in words)” value is on record as “electroencephalogram appeared by restoration during recirculation period depending on the dose of 3 to 10 mg/kg” and the “survival time of animals after recirculation (in words)” value was “clearly elongated”. In series [2], the carcinogenicity result was “free from carcinogenicity”. For the same compound, the “protective action for myocardial ischemia (in words)” value in series [3] was “exhibits protective action for myocardial ischemia”. Further, the “Recovery of the cardiac output (CO)” value in series [3] (10^-5 M, 30 minutes after reperfusion after 20 min ischemia, N = 5, mean ± standard error (Table 5)) turned out to be 23.8 ± 14.6%. Moreover, in series [3] (30 minutes after reperfusion), the “Recovery of the cardiac functions (CO 50% or more), percentage” value was 40%. Moreover, in series [3] (30 minutes after reperfusion after 20 min cardiac ischemia), the “average recovery action based on the cardiac output (CO)” value came out at 24%. Also, the “Number of recovery of the cardiac functions (CO 50% or more)” value in series [3] (hearts recovered/total, 30 minutes after reperfusion) is recorded as 2/5. Also, in series [4], the 50% lethal dose (LD50) was 2012 mg/kg.
